Earlier results as cited in patent US20120201889A1, “MODIFIED AND IMMEDIATE RELEASE FORMULATIONS OF MEMANTINE” (Forest Laboratories Holdings Ltd., priority 2005, published 2012).

Conditions: after oral administration

For CC12CC3CC(C)(C1)CC(N)(C3)C2 [memantine, 1-amino-3,5-dimethyladamantane], the absolute bioavailability is listed as “approximately 100%”.
